Data as given in US6794376B2, “Methods and compositions for enhancing diffusion of therapeutic agents through tissue” (William Beaumont Hospital, priority 2000, dated 2004).

Legend:
[1] = tested on: Spheroids made from MCF-7 human breast carcinoma cells; assay: Doxorubicin penetration and morphology in MCF-7 spheroids treated with permeabilizer, with or without hyperthermia; format: cell-based
Protocol: Spheroids made from MCF-7 human breast carcinoma cells were treated with 3.0 micrograms per milliliter doxorubicin for six hours at various temperatures and under various permeabilizer conditions. Doxorubicin is an anti-neoplastic drug frequently used in chemotherapy procedures. When the spheroids were treated for six hours at 37.0° C. in the absence of permeabilizer, the drug penetrated only six cell layers into the spheroids. […] The spheroids in this experiment also underwent a characteristic change in morphology. […] These changes in spheroid morphology and drug penetration were never observed in control spheroids that received no permeabilizer treatment. Furthermore, these changes were never observed in spheroids that received sham treatment, which included exposure to all components used in the permeabilizer emulsion except the permeabilizer.
In this example, spheroids were treated as in example 1 with the addition of hyperthermia as an additional variable in the experiment. Hyperthermia in this example involved raising the temperature of the spheroids to approximately 40° C. […] Hyperthermia treatment alone had no effect on penetration of doxorubicin or upon the intercellular space.

[2] = Highest permeabilizer concentration that gives a stable emulsion; format: physicochemical
Protocol: As indicated above, prior to delivery to the tissue of interest, a working emulsion of the permeabilizer is prepared, preferably from one of the stocks. The working emulsion preferably comprises one or more permeabilizers in a buffer. The concentration of the permeabilizer will depend on the permeabilizer used in the procedure being conducted. Because ethylene brassylate and civetone are liquids, they can be administered to a tissue at concentrations up to 100%. Preferably, the working emulsion contains ethylene brassylate, civetone, or a combination of both at a concentration of between approximately 0.1 and 20% (volume/volume). As indicated above, Cyclopentadecanone and cyclopentadecanolide, however, are solids. The highest concentration of cyclopentadecanone or cyclopentadecanolide that can be made into a stable emulsion is approximately 25% (weight/volume). As a result, the working emulsion preferably contains cyclopentadecanone or cyclopentadecanolide at a concentration of between approximately 0.1 and 25%. Particularly preferred is a working solution that contains cyclopentadecanone, cyclopentadecanolide, or a combination of both, at a concentration of between approximately 0.1 and 7%.

[3] = tested on: spheroids made from DU-145 human prostate carcinoma cells; assay: Adenovirus vector (beta-galactosidase reporter) penetration into DU-145 spheroids treated with permeabilizer, with or without hyperthermia; format: cell-based
Protocol: The spheroids made from DU-145 human prostate carcinoma cells were grown to an average diameter of 500 micrometers and then suspended in culture medium containing 0.1% to 3% cyclopentadecanolide plus adenovirus vectors that had beta-galactosidase as a reporter transgene. Once a viral vector entered a cell, beta-galactosidase was expressed constitutively under control of the human CMV promoter. The experimental protocol called for the spheroids to be incubated for 48 to 72 hours following treatment to permit transgene expression. It should be noted that a reporter gene was utilized in this Example, as well as in Examples 4 and 5, only to facilitate determination of the extent of vector diffusion. Any other polynucleotide could be used in this system, including suicide genes and genes encoding therapeutic proteins.
Within 6 to 24 hours following permeabilizer treatment, depending upon the permeabilizer concentration used, the cells within the spheroid regions where the intercellular space was increased became detached from the spheroid.

[4] = tested on: Du-145 tumors grafted onto mice; assay: Adenovirus vector diffusion (X-gal staining) in Du-145 xenograft tumors injected with permeabilizer, with or without hyperthermia; format: in vivo; conditions: single injection of 30 microliters, tumor retrieved at 72 hours
Protocol: Du-145 tumors grafted onto mice were injected with cyclopentadecanolide and adenovirus vector that contained the beta-galactosidase transgene, all in PBS. The tumor was retrieved 72 hours after treatment, cryosectioned, and stained with X-gal to visualize beta-galactosidase expression.
In this example, tumors were heated to 41.0° C. using an unfocused ultrasonic transducer prior to treatment with permeabilizer and virus vector. When hyperthermia was established, the tumor was given a single injection of 30 microliters containing 6% cyclopertadecanolide and 2×10^10 adenovirus vectors that contained the beta-galactosidase transgene, all in PBS. Following the injection, the hyperthermia was continued for an additional 45 minutes. That is, the elevated temperature was maintained for 45 minutes after injection. The tumor was retrieved 72 hours following the injection, cryosectioned, and stained with X-gal to visualize beta-galactosidase expression.
The voids were filled with light amber colored, gelatinous material, indicating break-down of the tissue cell membranes.

[5] = 6% permeabilizer and 2×10^10 adenovirus vectors, hyperthermia 41.0° C. kept for 45 minutes after injection

| Structure (SMILES) | depth of doxorubicin penetration into the spheroids ([1]; 3.0 micrograms per milliliter doxorubicin, six hours, 37.0° C., absence of permeabilizer) | effect of hyperthermia treatment alone on penetration of doxorubicin ([1]; hyperthermia approximately 40° C., no permeabilizer) | highest concentration that can be made into a stable emulsion [2] | spheroid morphology / intercellular space ([1]; 0.6% cyclopentadecanone, 37.0° C., six hours) | degree to which doxorubicin penetrated the spheroids ([1]; 3.0 micrograms per milliliter doxorubicin, six hours, culture medium containing 0.6% cyclopentadecanone, 37.0° C.) | permeabilizer activity with concurrent hyperthermia ([1]; as example 1 plus hyperthermia, approximately 40° C.) | doxorubicin penetration with permeabilizer and hyperthermia ([1]; as example 1 plus hyperthermia, approximately 40° C., doxorubicin fluorescence) | intercellular space with concurrent hyperthermia ([1]; as example 1 plus hyperthermia, approximately 40° C., intact and sectioned spheroids) | transgene expression in cells that detached from the spheroids ([3]; 0.1% to 3% cyclopentadecanolide plus adenovirus vectors with beta-galactosidase reporter transgene) | cell detachment from the spheroid when hyperthermia was included ([3]; 0.1% to 3% cyclopentadecanolide plus hyperthermia) | X-gal staining from beta-galactosidase expression in tumor sections [4, 5] | tumor section morphology (tissue destruction) [4, 5] | X-gal staining from beta-galactosidase expression in tumor sections ([4]; 12% cyclopentadecanolide and 2×10^10 adenovirus vectors, no hyperthermia) |
| --- | --- | --- | --- | --- | --- | --- | --- | --- | --- | --- | --- | --- | --- |
| COc1cccc2c1C(=O)c1c(O)c3c(c(O)c1C2=O)C[C@@](O)(C(=O)CO)C[C@@H]3O[C@H]1C[C@H](N)[C@H](O)[C@H](C)O1 [doxorubicin, reference compound] | six | no effect | – | – | – | – | – | – | – | – | – | – | – |
| O=C1CCCCCCCCCCCCCC1 [cyclopentadecanone] | – | – | approximately 25 % (weight/volume) | increase in intercellular space | essentially tripled | marked potentiation of permeabilizer activity | penetrated all recesses of the spheroids | greater increase in intercellular space | – | – | – | – | – |
| O=C1CCCCCCCCCCCCCCO1 [cyclopentadecanolide] | – | – | approximately 25 % (weight/volume) | – | – | – | – | – | exhibit beta-galactosidase activity | grossly exacerbated | pervaded the remainder of the sections | large voids in the center of the sections | pervasive throughout the section |
